Laboratory results as given in US7173063B1, “Topoisomerase poisons for the treatment of proliferative disorders” (Fred Hutchinson Cancer Research Center, priority 2000, dated 2007).

Tests used:
[1] = Cell based assays (toxicity, unspecified)
[2] = tested on: ACHN, SW620, A549, MDA-N; assay: Thymidine incorporation toxicity assay in four cancer derived cell lines; format: cell-based, human; conditions: for correlation between MDR1 activity and toxicity/sensitivity: A549, SW620, ACHN (MDR1 10, 31, 120); for toxicity in human cancer and vertebrate cells: FIG. 4
Method: (§1) Cell lines were grown at 37° C. in an atmosphere of 5% CO2. The chicken pre-B cell line DT40 and its derivatives (Bezzubova, et al., Cell 89: 185–93 (1997), Takata, et al., EMBO Journal 17: 5497–508 (1998), Yamaguchi-Iwai, et al., Molecular & Cellular Biology 18: 6430–5 (1998)) were grown in RPMI containing 10% fetal calf serum and 1% chicken serum. The remaining cell lines were grown in DMEM with 10% fetal calf serum.
(§2) Toxicity assays in mammalian cell lines were performed using tritiated thymidine incorporation as a measure of the number of viable cells. […] Drug toxicity was measured as follows:
(§3) Cells were plated at a density of 500 cells per well in opaque 96 well plates (Packard) in a volume of 135 μL per well of the appropriate media. The plates were incubated overnight to allow cell adherence. Seven two-fold dilutions of the test compounds were added in a volume of 15 μL per well in triplicate, and 15 μL of media containing an appropriate concentration of DMSO was added to control wells in triplicate. Plates were incubated at 37° C. for 96 hours. The media was then replaced with 100 μL per well of the appropriate media containing 2 μCi/mL of (methyl-^3H) thymidine (Amersham Pharmacia Biotech), then plates were incubated for a further 24 hours at 37° C. Cells were washed three times with PBS, then 100 μL per well of scintillant was added (Microscint 20, Packard), and sealed plates were counted in a microplate reader (Packard Topcount). For suspension chicken cells, (methyl-^3H) thymidine was added directly to the drug-containing media at a concentration of 20 μCi/mL (comprising one tenth of the media volume) and incubated overnight. The suspension cells were transferred to a UniFilter GF/C plate (Packard) and washed with PBS in a plate washer (Packard). After drying, 25 μL per well of scintillant (Microscint 20, Packard) was added, and sealed plates were counted. Toxicity is expressed as a percentage of the control counts. For experiments involving shorter exposures to compounds, cells were grown in the presence of compound for the appropriate time, then the media was replaced with fresh drug-free media, and incubation continued for the remainder of 96 hours, followed by the normal tritiated thymidine uptake and washing protocol.
A common mechanism of tumor resistance to chemotherapeutic agents is overexpression of the drug efflux protein MDR1 (Kane, et al., Advances in Drug Research 28: 182–252 (1996), Nooter, et al., Leukemia Research 18: 233–43 (1994)). MDR1 is overexpressed in many tumor derived cell lines (for instance see http://dtp.nci.nih.gov/), and its overexpression inversely correlates with sensitivity to certain compounds (Kane, et al., Advances in Drug Research 28: 182–252 (1996)).

[3] = tested on: chicken pre-B cell line DT40; assay: Thymidine incorporation toxicity assay in isogenic DT40 cells with or without KU70, RAD52, RAD54; format: cell-based; conditions: for effect of loss of KU70 on toxicity: DT40 with or without KU70; for effect of loss of homologous recombination (RAD52 or RAD54) on toxicity: DT40 with or without RAD52 or RAD54
Method: as §1, §2, §3
In the case of Topo II poisons, the drug/enzyme complex directly produces a DSB, which could occur in all phases of the cell cycle and can apparently be repaired by either DSB repair pathway. Topo I poisons, however, create a single strand break that is converted to a DSB by passage of a replication fork during ongoing DNA synthesis (D'Arpa, et al., Cancer Research 50: 6919–24 (1990), Hsiang, et al., Cancer Research 49: 5077–82 (1989), Holm, et al., Cancer Research 49: 6365–8 (1989)). It has been proposed that DSB's created in this context can only be repaired by homologous recombination, additionally requiring proteins involved in sister chromatid cohesion (Castano, et al., Genes & Development 10: 2564–76 (1996), Castano, et al., Nucleic Acids Research 24: 2404–10 (1996), Walowsky, et al., Journal of Biological Chemistry 274: 7302–8 (1999)).

[4] = biological target: T1, purified Topo I (Homo sapiens, UniProt P11387); assay: In vitro assay for DNA strand-break formation in the presence of purified Topo I; format: biochemical; conditions: purified Topo I, in vitro; data not shown
T1 sequence (P11387 1-765): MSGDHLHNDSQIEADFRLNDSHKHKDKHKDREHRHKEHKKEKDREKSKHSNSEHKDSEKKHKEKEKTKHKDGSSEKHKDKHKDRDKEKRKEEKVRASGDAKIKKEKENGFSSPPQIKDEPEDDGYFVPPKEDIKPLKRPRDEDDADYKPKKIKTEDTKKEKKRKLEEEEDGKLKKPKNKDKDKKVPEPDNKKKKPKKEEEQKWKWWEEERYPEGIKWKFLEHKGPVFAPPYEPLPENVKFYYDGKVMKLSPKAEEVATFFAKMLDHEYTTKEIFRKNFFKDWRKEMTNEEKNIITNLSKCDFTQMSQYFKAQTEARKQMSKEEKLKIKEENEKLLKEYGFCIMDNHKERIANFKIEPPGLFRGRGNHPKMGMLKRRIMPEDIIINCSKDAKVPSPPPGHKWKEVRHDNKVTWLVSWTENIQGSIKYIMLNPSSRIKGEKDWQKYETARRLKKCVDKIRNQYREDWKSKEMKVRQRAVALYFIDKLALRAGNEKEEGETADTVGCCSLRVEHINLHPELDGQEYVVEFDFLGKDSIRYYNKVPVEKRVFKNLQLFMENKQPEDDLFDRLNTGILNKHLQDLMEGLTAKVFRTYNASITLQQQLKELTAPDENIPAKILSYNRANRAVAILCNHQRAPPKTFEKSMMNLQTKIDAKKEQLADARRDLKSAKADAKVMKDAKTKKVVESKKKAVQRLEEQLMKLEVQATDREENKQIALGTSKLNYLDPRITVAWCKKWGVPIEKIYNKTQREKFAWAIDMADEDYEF

Structure (SMILES)	IC50 compared to camptothecin [1]	relative sensitivity of ACHN and A549 [2]	correlation between MDR1 activity and toxicity/sensitivity [2]	toxicity in human cancer and vertebrate cells [2]	cell line against which most effective ([2]; four tumor derived cell lines)	effect of loss of KU70 on toxicity [3]	effect of loss of homologous recombination (RAD52 or RAD54) on toxicity [3]	strand-break induction [4]	differences in toxicity between the cell lines ([2]; four tumor derived cell lines)
O=c1c(Cl)c(Cl)cnn1CCCl [compound IIa]	higher IC50's	ACHN is more sensitive than A549	No correlation	toxic in human cancer and vertebrate cells	most effective against the colon carcinoma derived cell line SW620	unaffected by loss of KU70	only marginally affected	did not detect strand-break induction	–
O=C(CCl)Nc1ccc(C(=O)N/N=C/c2ccc(Cl)cc2)cc1 [compound Ia]	higher IC50's	–	No correlation	toxic in human cancer and vertebrate cells	most effective against the colon carcinoma derived cell line SW620	unaffected by loss of KU70	only marginally affected	did not detect strand-break induction	no significant differences in toxicity
